This is an account of results in US11540981B2, “Nanoemulsion formulation with improved stability and cell penetration” (BIOFRONTERA BIOSCIENCE GMBH, priority 2006, dated 2023).

For series [1] the following is noted: high concentrations required for clinical application, neutral to basic pH range; cited from earlier work.
A short description of series [2]: Phase II clinical study: pharmacokinetic assessment of systemic plasma and urine levels. Particulars: ALA-treated patients, compared with naturally occurring physiological values in the same individuals.
For series [3] the following is noted: 25° C.; cited from earlier work.

The structures appear in SMILES notation.

In the case of `NCC(=O)CCC(=O)O` [ALA, 5-aminolevulinic acid], the “stability in aqueous solutions” value in series [1] is recorded as “unstable”. Also, in series [2], the “plasma concentrations of ALA and its metabolite protoporphyrin IX” value is recorded as “not increased”; the “urine concentrations of ALA and its metabolite protoporphyrin IX” value is reported as “not increased”.

Turning to `CCO` [ethanol], in series [3], the viscosity is reported as 1.10 cp.

As to `CC(C)O` [isopropanol], in series [3], the viscosity is 2.32 cp.
